Assay results from ChEMBL document CHEMBL1144384, “Hypoxia-selective activation of 5-fluorodeoxyuridine prodrug possessing indolequinone structure: radiolytic reduction and cytotoxicity characteristics” (Bioorg Med Chem Lett, 2005).

Assay: Inhibitory concentration required to reduce cellular survival to 50% towards murine tumor EMT6/KU cell line
Assay type: functional, cell-based
Settings: Mus musculus

## O=c1[nH]c(=O)n([C@H]2C[C@H](O)[C@@H](CO)O2)cc1F [FLOXURIDINE]
  IC50: 8.1 µM
